From ChEMBL document CHEMBL3885881, “DrugMatrix”

Species on record: Rattus norvegicus
Test: DrugMatrix - Regimen: Daily Repeat
Format: toxicity, organism-based, Sprague-Dawley
Parameters: regimen Daily Repeat, gender Male, age 6-8 weeks
Conditions: in vivo, po, 60 mg/kg, route oral GAVAGE, dose level High, vehicle 100 % WATER; for ABSOLUTE BASOPHIL / ABSOLUTE EOSINOPHIL / ABSOLUTE LYMPHOCYTE / ABSOLUTE MONOCYTE / ABSOLUTE SEGMENTED NEUTROPHIL / BASOPHIL / EOSINOPHIL / ERYTHROCYTE COUNT / HEMATOCRIT / HEMOGLOBIN / LEUKOCYTE COUNT / LYMPHOCYTE / MEAN CORPUSCULAR HEMOGLOBIN / MEAN CORPUSCULAR HEMOGLOBIN CONCENTRATION / MEAN CORPUSCULAR VOLUME / MONOCYTE / NEUTROPHIL / NUCLEATED RED BLOOD CELLS / PLATELET COUNT: tissue Blood
[1] = 72 h, tissue Plasma, time 3 day
[2] = 120 h, tissue Plasma, time 5 day

SMILES: Nc1ccc(O)c(N)c1 [2,4-DIAMINOPHENOL]
- ABSOLUTE BASOPHIL (72 h, time 3 day): 0 CELLS/uL
- ABSOLUTE EOSINOPHIL (72 h, time 3 day): 193.67 CELLS/uL
- ABSOLUTE LYMPHOCYTE (72 h, time 3 day): 11960 CELLS/uL
- ABSOLUTE MONOCYTE (72 h, time 3 day): 874.33 CELLS/uL
- ABSOLUTE SEGMENTED NEUTROPHIL (72 h, time 3 day): 1505.33 CELLS/uL
- BASOPHIL (72 h, time 3 day): 0%
- EOSINOPHIL (72 h, time 3 day): 1.33%
- ERYTHROCYTE COUNT (72 h, time 3 day): 5.59 x10E6/uL
- HEMATOCRIT (72 h, time 3 day): 34.17%
- HEMOGLOBIN (72 h, time 3 day): 12.63 G/DL
- LEUKOCYTE COUNT (72 h, time 3 day): 14.53 x10E3/uL
- LYMPHOCYTE (72 h, time 3 day): 82.33%
- MEAN CORPUSCULAR HEMOGLOBIN (72 h, time 3 day): 22.6 pg
- MEAN CORPUSCULAR HEMOGLOBIN CONCENTRATION (72 h, time 3 day): 36.97 G/DL
- MEAN CORPUSCULAR VOLUME (72 h, time 3 day): 61.1 fL
- MONOCYTE (72 h, time 3 day): 6%
- NEUTROPHIL (72 h, time 3 day): 10.33%
- NUCLEATED RED BLOOD CELLS (72 h, time 3 day): 0 /100WBC
- PLATELET COUNT (72 h, time 3 day): 1050 x10E3/uL
- ALANINE AMINOTRANSFERASE [1]: 72 u/L
- ALBUMIN [1]: 4.43 G/DL
- ALKALINE PHOSPHATASE [1]: 400.67 u/L
- ASPARTATE AMINOTRANSFERASE [1]: 94 u/L
- BLOOD UREA NITROGEN [1]: 17.67 mg/dL
- CARBON DIOXIDE [1]: 23.33 mmol/L
- CHLORIDE [1]: 102.67 MEQ/L
- CHOLESTEROL [1]: 68 mg/dL
- CREATININE [1]: 0.19 mg/dL
- GLUCOSE [1]: 165 mg/dL
- LACTATE DEHYDROGENASE [1]: 314.67 u/L
- LIPASE [1]: 8.33 u/L
- PHOSPHORUS [1]: 12.5 mg/dL
- POTASSIUM [1]: 6.48 MEQ/L
- SODIUM [1]: 144.2 MEQ/L
- TOTAL BILIRUBIN [1]: 0.23 mg/dL
- TOTAL PROTEIN [1]: 6 G/DL
- URIC ACID [1]: 1.63 mg/dL
- ABSOLUTE BASOPHIL (120 h, time 5 day): 0 CELLS/uL
- ABSOLUTE EOSINOPHIL (120 h, time 5 day): 0 CELLS/uL
- ABSOLUTE LYMPHOCYTE (120 h, time 5 day): 5905 CELLS/uL
- ABSOLUTE MONOCYTE (120 h, time 5 day): 88.67 CELLS/uL
- ABSOLUTE SEGMENTED NEUTROPHIL (120 h, time 5 day): 839.67 CELLS/uL
- BASOPHIL (120 h, time 5 day): 0%
- EOSINOPHIL (120 h, time 5 day): 0%
- ERYTHROCYTE COUNT (120 h, time 5 day): 5.11 x10E6/uL
- HEMATOCRIT (120 h, time 5 day): 31.43%
- HEMOGLOBIN (120 h, time 5 day): 11.77 G/DL
- LEUKOCYTE COUNT (120 h, time 5 day): 6.83 x10E3/uL
- LYMPHOCYTE (120 h, time 5 day): 86.33%
- MEAN CORPUSCULAR HEMOGLOBIN (120 h, time 5 day): 23.1 pg
- MEAN CORPUSCULAR HEMOGLOBIN CONCENTRATION (120 h, time 5 day): 37.43 G/DL
- MEAN CORPUSCULAR VOLUME (120 h, time 5 day): 61.57 fL
- MONOCYTE (120 h, time 5 day): 1.33%
- NEUTROPHIL (120 h, time 5 day): 12.33%
- NUCLEATED RED BLOOD CELLS (120 h, time 5 day): 0 /100WBC
- PLATELET COUNT (120 h, time 5 day): 990.67 x10E3/uL
- ALANINE AMINOTRANSFERASE [2]: 50.33 u/L
- ALBUMIN [2]: 4.63 G/DL
- ALKALINE PHOSPHATASE [2]: 303.67 u/L
- ASPARTATE AMINOTRANSFERASE [2]: 73 u/L
- BLOOD UREA NITROGEN [2]: 12.67 mg/dL
- CARBON DIOXIDE [2]: 33 mmol/L
- CHLORIDE [2]: 99.67 MEQ/L
- CHOLESTEROL [2]: 71.67 mg/dL
- CREATININE [2]: 0.15 mg/dL
- GLUCOSE [2]: 135.33 mg/dL
- LACTATE DEHYDROGENASE [2]: 84.67 u/L
- LIPASE [2]: 8.67 u/L
- PHOSPHORUS [2]: 12.63 mg/dL
- POTASSIUM [2]: 6.25 MEQ/L
- SODIUM [2]: 146.5 MEQ/L
- TOTAL BILIRUBIN [2]: 0.23 mg/dL
- TOTAL PROTEIN [2]: 6.5 G/DL
